Assay results from the METLIN SMRT retention time set (Domingo-Almenara et al. 2019).

Experiment: gradient 5% acetonitrile 3 min, to 50% in 2 min, to 85% in 15 min, held 3 min, 100 µL/min
Details: column: Zorbax Extend-C18 2.1 x 50 mm; eluents: water / acetonitrile, 0.1% formic acid
In short: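 Each retention time is based on an adduct peak selected computationally and verified by manual inspection. Measurements used HPLC–quadrupole time-of-flight mass spectrometry in positive and negative ionization mode on mixtures of ~100 pure standards. Chromatography ran on a Zorbax Extend-C18 column (2.1 × 50 mm, 1.8 μm) at 100 μL/min with water and acetonitrile, each containing 0.1% formic acid, and dead and dwell volumes of 40 μL and 900 μL.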
Compound Cc1ccc(-n2cc3c(N4CCCC(C(=O)NCc5ccc(OC(C)C)cc5)C4)ncnc3n2)cc1 (centres undefined) has an RP-LC retention time of 765 s. For CCOc1ccc(S(=O)(=O)N2CCC(c3nc(C(=O)N(C)C)c(C)o3)CC2)cc1, the RP-LC retention time was 843 s. CCN1CCN(c2nc3c(s2)CN(C(=O)CCC(C)C)CC3)CC1 showed an RP-LC retention time of 614 s. Compound CC1CCN(C2=NCCN2C(=O)c2c(F)cccc2F)CC1 has an RP-LC retention time of 660 s. For CC(C)(C)c1ccc(O)c(CN(Cc2cc(C(C)(C)C)ccc2O)C2CCCCC2)c1, the RP-LC retention time was 1020 s. Work on COc1ccc(CNC(=O)c2cc(NC(C)=O)cc3nc(C)ccc23)cc1OC yielded an RP-LC retention time of 575 s. Work on Cc1oc(-c2[nH]ncc2C(=O)N2CCCC2)cc1S(=O)(=O)NCCCOC(C)C yielded an RP-LC retention time of 655 s. With COc1cccc(-c2noc(Cn3c(=O)n(-c4cccc(F)c4)c(=O)c4sccc43)n2)c1 the RP-LC retention time was 957 s. Cn1c(=O)oc2cc(-c3noc(-c4ccc(C#N)cc4)n3)ccc21 gave an RP-LC retention time of 988 s. CC(=O)c1cccc(NC(=O)Cn2c(=O)n(-c3ccccc3)c(=O)c3c2cc(C)n3C)c1 showed an RP-LC retention time of 763 s. For O=C1CC(c2ccccc2)Cc2nc(N3CCN(c4ccccn4)CC3)ncc21 (centres undefined), the RP-LC retention time was 624 s. CCCCCC(=O)Nc1nc(-c2ccc(C)cc2C)cs1 showed an RP-LC retention time of 1190 s. For CCN1C(=O)c2cccnc2Sc2cc(NC(=O)c3ccccc3F)ccc21, the RP-LC retention time was 834 s. For CN(C(=O)C(=O)Nc1ccc2nc3n(c(=O)c2c1)CCCCC3)c1ccccc1F, the RP-LC retention time was 746 s. For O=C(Cn1c(=O)c2cc(-c3ccco3)nn2c2ncccc21)NC1CCCCC1, the RP-LC retention time was 793 s. Work on COc1ccc(C(=O)Nc2cnc(N3CCOCC3)nc2)cc1 yielded an RP-LC retention time of 618 s. CCOC(=O)c1ccccc1NC(=O)Cn1nc2c(Sc3ccccc3)nccn2c1=O showed an RP-LC retention time of 1060 s. O=C(c1cccc(-n2cnnn2)c1)N1CCC(c2nnc(-c3ccco3)s2)CC1 showed an RP-LC retention time of 651 s. Work on Cc1cc(S(=O)(=O)N2CCC3(CC2)NCCCN=C3NC2CCCC2)ccc1F yielded an RP-LC retention time of 768 s. With Cc1nc(CCNC(=O)C2CCN(S(=O)(=O)c3ccc(CC(C)C)cc3)CC2)cs1 the RP-LC retention time was 917 s. With Cc1ccn2cc(-c3ccc(NC(=O)COc4ccccc4)cc3)nc2n1 the RP-LC retention time was 663 s. Work on COCCn1cc(CCNC(=O)Nc2cc(C)ccc2C)c2cccnc21 yielded an RP-LC retention time of 752 s. Work on CCCc1c(C(=O)O)nnn1Cc1ccccc1Cl yielded an RP-LC retention time of 796 s. O=C(Nc1c(C(=O)N2CCN(c3ccccn3)CC2)oc2ccccc12)c1cccc([N+](=O)[O-])c1 gave an RP-LC retention time of 744 s. With O=C(NCC1CCN(C(=O)c2cc3ccccc3o2)CC1)C(=O)Nc1cccnc1 the RP-LC retention time was 601 s. Cc1csc(C(=O)Nc2nnc(SCC(=O)Nc3cccnc3)s2)c1 showed an RP-LC retention time of 597 s. With O=C(O)c1cccc2c1CCN2S(=O)(=O)c1ccccc1F the RP-LC retention time was 812 s. With CCc1ccc(CNC(=O)c2cc3ccncc3n2C)cc1 the RP-LC retention time was 648 s. In the case of COc1ccc(N2C(=O)CCC(C(=O)NCCCN3CCCCCC3)C2c2ccc(F)cc2)cc1 (centres undefined), the RP-LC retention time is reported as 610 s. Work on CCCn1cc(CCNC(=O)c2ccccc2C)c2cccnc21 yielded an RP-LC retention time of 748 s. In the case of O=C(c1ccc2c(c1)OCO2)N1CCC2(CC1)N(c1ccccc1)C(=O)CS2(=O)=O, the RP-LC retention time is reported as 685 s. In the case of CCOc1ccc(-c2nc(Cc3noc(-c4ccncc4)n3)c(C)o2)cc1, the RP-LC retention time is reported as 1010 s. Work on CCOc1ccccc1NC(=O)c1cc2c(=O)n(CC(C)C)c3ccccc3n2n1 yielded an RP-LC retention time of 1350 s. CCn1cc(-c2ccc(Cl)cc2)cc1C(=O)N1CCCCC1 showed an RP-LC retention time of 1150 s. Compound O=C(CNC(=O)c1ccc(=O)[nH]c1)NCC1CCCCC1 has an RP-LC retention time of 599 s. For CCCc1noc(-c2ccnc(-n3ncc(C(=O)Nc4ccc(F)cc4)c3C)c2)n1, the RP-LC retention time was 1120 s. O=C(Nc1cc(-c2ccccn2)no1)c1ccc(F)cc1 gave an RP-LC retention time of 795 s. With Cc1ccccc1CN1CCCN(c2ncccc2-c2nc(C(C)C)no2)CC1 the RP-LC retention time was 725 s. For CC1CN(C2CCCCC2)c2nc3c(c(=O)n(CCCO)c(=O)n3C)n2C1 (centres undefined), the RP-LC retention time was 803 s. Work on CC(CNC(=O)c1nc(Cn2c(=O)oc3ccccc32)no1)c1ccccc1 (centres undefined) yielded an RP-LC retention time of 932 s. Work on COc1ccc(CNC(=O)Cn2cccc2-c2nnc(-c3ccccc3)o2)cc1 yielded an RP-LC retention time of 862 s. In the case of Cn1nc(-c2nc(Cc3ccccc3)no2)c2c1CCN(C(=O)C1CCCO1)C2 (centres undefined), the RP-LC retention time is reported as 777 s. In the case of Cn1ncc2c(N3CCSCC3)nc(C(=O)NCc3ccc(C(F)(F)F)cc3)nc21, the RP-LC retention time is reported as 907 s. Cc1ccccc1Nc1c(-c2ccc(Cl)cc2)nc2ccc(Cl)cn12 gave an RP-LC retention time of 1050 s. In the case of Cn1c(=O)n(C)c2cc(N3CCCC3)c(NC(=O)Cc3ccccc3)cc21, the RP-LC retention time is reported as 670 s. With CCOc1ccc(NC(=O)N2CCC(n3cnc4ccc(Cl)cc4c3=O)CC2)cc1 the RP-LC retention time was 844 s. CCc1ccc(NC(=O)N2CCCC2c2cc(C)on2)cc1 (centres undefined) showed an RP-LC retention time of 845 s. Compound CCOC(=O)c1ccccc1NC(=O)Cn1cnc2nc(-c3cccnc3)ncc2c1=O has an RP-LC retention time of 744 s. For CCCC(=O)N1CCc2c([nH]c3ccccc23)C1c1ccc(SC)cc1 (centres undefined), the RP-LC retention time was 1170 s. Compound Cn1nccc1-c1cccc(-c2noc(Cc3ccccc3F)n2)c1 has an RP-LC retention time of 1050 s. With O=C(Cn1ccn2nc(-c3ccccc3)c(CO)c2c1=O)Nc1cccc(Cl)c1 the RP-LC retention time was 856 s. Cc1ccsc1C(=O)Nc1cccn2nc(C(C)C)nc12 showed an RP-LC retention time of 986 s. With O=C(Cn1ccc2cc(S(=O)(=O)N3CCCCCC3)ccc21)N1CCN(c2ccccn2)CC1 the RP-LC retention time was 707 s. For CCCn1cc(C(=O)NCC2CCCO2)c2cccnc21 (centres undefined), the RP-LC retention time was 669 s. With Cc1ccc(-c2csc(NC(=O)COc3ccccc3C(C)(C)C)n2)cc1 the RP-LC retention time was 1380 s. Compound Cc1csc(-c2ccc(N3CCN(C(=O)c4nn(C)c5ccccc45)CC3)nc2)n1 has an RP-LC retention time of 864 s. With Cc1cccnc1NC(=O)C1CCN(S(=O)(=O)c2cn(C(C)C)cn2)CC1 the RP-LC retention time was 591 s. For COc1ccc(CNC(=O)C2=C3CCCN3c3ccc(F)cc3S2(=O)=O)cc1OC, the RP-LC retention time was 764 s. Cc1ccc(C(C)NC(=O)c2ccc3c(c2)nc2n3CCN(C(C)C)C2=O)c(C)c1 (centres undefined) showed an RP-LC retention time of 786 s. With Cc1ccn2c(NC(=O)COc3ccc(Cl)cc3)c(-c3ccccc3)nc2c1 the RP-LC retention time was 714 s. CC1Oc2ccc(-c3csc(NC(=O)CCC4CCCCC4)n3)cc2N(C)C1=O (centres undefined) showed an RP-LC retention time of 1230 s. For Cc1ccc(N2CC(c3noc(-c4ccccn4)n3)CC2=O)cc1 (centres undefined), the RP-LC retention time was 797 s. Cc1cc2nc(C(F)(F)F)c(=O)n(C(C)C(=O)NCCCN3CCCC3)c2cc1C (centres undefined) showed an RP-LC retention time of 714 s. Compound CCc1cccc(C)c1Nc1c(-c2cc(Br)ccc2O)nc2ncccn12 has an RP-LC retention time of 1090 s. CCCN1C(=O)c2cc(S(=O)(=O)Nc3ccccc3OC)ccc2Oc2cccnc21 gave an RP-LC retention time of 1080 s. For COc1ccc(-c2nc(-c3ccc4ncn(C(C)C)c4c3)no2)c(C)c1, the RP-LC retention time was 881 s. CCOCCCNC(=O)N1CCc2cc(-c3ccc(C(=O)N4CCOCC4)cc3)ccc21 gave an RP-LC retention time of 608 s. For Cc1ccc(-c2nc(Cn3cccc3C(=O)NCc3cccs3)no2)cc1, the RP-LC retention time was 1040 s. With CSCC[C@H](NC(=O)C(C)Oc1cc(C)cc2oc(=O)c3c(c12)CCCC3)C(=O)O (some centres undefined) the RP-LC retention time was 860 s. For Cc1cc(-c2c(C)sc(C)c2S(=O)(=O)NCCc2ccc(Cl)cc2)n[nH]1, the RP-LC retention time was 1130 s. COc1ccc(-c2noc(Cn3ccn4nc(-c5ccc(C)cc5)cc4c3=O)n2)cc1OC showed an RP-LC retention time of 986 s. For COc1ccc2c(c1)C1(CCN(C(=O)Nc3ccc(C)cc3)C1)C(=O)N2 (centres undefined), the RP-LC retention time was 745 s. Compound O=C(Nc1cccc(Br)c1)C(=O)c1c[nH]c2ccccc12 has an RP-LC retention time of 1060 s. Compound O=C(Nc1ccc2c(c1)OCO2)c1c(O)c2ccccc2n(-c2ccccc2)c1=O has an RP-LC retention time of 858 s. For O=C(c1ccc(Cl)cc1Cl)N1CCN(c2cc(-c3ccc(Cl)cc3)[nH]n2)CC1, the RP-LC retention time was 981 s. Work on COCc1nncn1C1CCN(S(=O)(=O)c2cccc(F)c2)CC1 yielded an RP-LC retention time of 693 s. In the case of CC(C)(C)n1nc2c(c1NC(=O)c1cccs1)CS(=O)(=O)C2, the RP-LC retention time is reported as 690 s. For CCCNC(=O)c1cc2sccc2n1Cc1ccc(C)cc1, the RP-LC retention time was 1060 s. With CN1C(=O)Cc2cc(C(=O)NC3CCCCC3)ccc21 the RP-LC retention time was 692 s. CCc1cc(C2CCCN2C(=O)Nc2cccc(Cl)c2)on1 (centres undefined) gave an RP-LC retention time of 924 s. In the case of Cc1ccc2nc(NC(=O)CSc3nnc(Cc4c(C)[nH]c(=O)[nH]c4=O)o3)sc2c1, the RP-LC retention time is reported as 643 s. With CC(C)Cn1cc(CCNS(=O)(=O)c2cccc(Cl)c2)c2cccnc21 the RP-LC retention time was 985 s. With COc1ccc(-c2nnc3sc(-c4ccncc4)nn23)cc1OC the RP-LC retention time was 710 s. In the case of COc1ccc(NC(=O)c2cc(C)n3nc(C)cc3n2)c(C)c1, the RP-LC retention time is reported as 1040 s. Work on Cc1ccc(CS(=O)(=O)N2CCC(CN3CCCC(C)C3)CC2)cc1 (centres undefined) yielded an RP-LC retention time of 688 s. Cc1cccc(CNC(=O)c2[nH]c3cc(C)sc3c2CN2CCOCC2)c1 showed an RP-LC retention time of 724 s. Work on Cn1nc(-c2nnc(-c3ccccc3F)o2)c2c1CCN(S(=O)(=O)c1ccc(Cl)cc1)C2 yielded an RP-LC retention time of 979 s. Compound CCOC(=O)C1=C(CN(C)Cc2ccccc2)NC(=O)NC1c1ccc(Cl)cc1 (centres undefined) has an RP-LC retention time of 698 s. CNC(=O)c1nc(-c2ccc(C)cc2)n2c1CCCCC2 showed an RP-LC retention time of 702 s.
